Experimental data as given in ChEMBL document CHEMBL1629541, “Synthesis and structure-activity relationships of aza- and diazabiphenyl analogues of the antitubercular drug (6S)-2-nitro-6-{[4-(trifluoromethoxy)benzyl]oxy}-6,7-dihydro-5H-imidazo[2,1-b][1,3]oxazine (PA-824)” (J Med Chem, 2010).
Values after ≈ are worked out from the molar mass of the structure shown.

What was measured:
physchem = conditions: water, pH 7
Description: Solubility of the compound in water at pH 7.0 by HPLC

[1] = test system: Mycobacterium tuberculosis; experiment: microbe, parasite or virus in culture; conditions: H37Rv
[2] = test system: Mycobacterium tuberculosis; experiment: microbe, parasite or virus in culture; conditions: H37Rv; remark: listed apart in the source
Description: Antitubercular activity against Mycobacterium tuberculosis H37Rv by LORA method

**Q.** With `N#Cc1ccc(-c2cc(CO[C@@H]3COc4nc([N+](=O)[O-])cn4C3)ccn2)cc1` as the molecule, how does the solubility (physchem) read?
**A.** 8 µg/mL (≈ 21.2 µM)

**Q.** What about the MIC [1] of the same molecule?
**A.** 0.38 µM (≈ 0.143 µg/mL)

**Q.** And the MIC [2]?
**A.** 13 µM (≈ 4.91 µg/mL)

**Q.** For `O=[N+]([O-])c1cn2c(n1)OC[C@@H](OCc1ccnc(-c3ccc(F)cc3)c1)C2`, which solubility (physchem) is on record?
**A.** 31 µg/mL (≈ 83.7 µM)

**Q.** What about the MIC [1] of the same molecule?
**A.** 0.17 µM (≈ 0.063 µg/mL)

**Q.** What about the MIC [2] of the same molecule?
**A.** 1.2 µM (≈ 0.444 µg/mL)

**Q.** Which solubility (physchem) does the source give for `O=[N+]([O-])c1cn2c(n1)OC[C@@H](OCc1ccnc(-c3ccc(OC(F)F)cc3)c1)C2` here?
**A.** 16 µg/mL (≈ 38.2 µM)

**Q.** And the MIC [1]?
**A.** 0.055 µM (≈ 0.023 µg/mL)

**Q.** And the MIC [2]?
**A.** 2.7 µM (≈ 1.13 µg/mL)

**Q.** What does the source list for `COc1ccc(-c2cc(CO[C@@H]3COc4nc([N+](=O)[O-])cn4C3)ccn2)cc1F`?
**A.** solubility (physchem): 7.2 µg/mL (≈ 18 µM); MIC [1]: 0.34 µM (≈ 0.136 µg/mL); MIC [2]: 6.2 µM (≈ 2.48 µg/mL)

**Q.** With `COc1ccc(-c2cc(CO[C@@H]3COc4nc([N+](=O)[O-])cn4C3)ccn2)cn1` as the molecule, how does the solubility (physchem) read?
**A.** 93 µg/mL (≈ 243 µM)

**Q.** And the MIC [1]?
**A.** 1.3 µM (≈ 0.498 µg/mL)

**Q.** And the MIC [2]?
**A.** 12 µM (≈ 4.6 µg/mL)

**Q.** Which results are given for `O=[N+]([O-])c1cn2c(n1)OC[C@@H](OCc1cncc(-c3ccc(C(F)(F)F)cc3)c1)C2`?
**A.** solubility (physchem): 2.8 µg/mL (≈ 6.66 µM); MIC [1]: 0.15 µM (≈ 0.0631 µg/mL); MIC [2]: 3.5 µM (≈ 1.47 µg/mL)

**Q.** What does the source list for `N#Cc1ccc(-c2cncc(CO[C@@H]3COc4nc([N+](=O)[O-])cn4C3)c2)cc1`?
**A.** solubility (physchem): 29 µg/mL (≈ 76.8 µM); MIC [1]: 0.69 µM (≈ 0.26 µg/mL); MIC [2]: 18 µM (≈ 6.79 µg/mL)

**Q.** With `O=[N+]([O-])c1cn2c(n1)OC[C@@H](OCc1cncc(-c3ccc(OC(F)(F)F)cc3)c1)C2` as the molecule, how does the solubility (physchem) read?
**A.** 9.5 µg/mL (≈ 21.8 µM)

**Q.** And the MIC [1]?
**A.** 0.17 µM (≈ 0.0742 µg/mL)

**Q.** And the MIC [2]?
**A.** 2.4 µM (≈ 1.05 µg/mL)

**Q.** Which solubility (physchem) does the source give for `O=[N+]([O-])c1cn2c(n1)OC[C@@H](OCc1cncc(-c3ccc(OC(F)F)cc3)c1)C2` here?
**A.** 9.2 µg/mL (≈ 22 µM)

**Q.** And the MIC [1]?
**A.** 0.53 µM (≈ 0.222 µg/mL)

**Q.** What about the MIC [2] of the same molecule?
**A.** 5.9 µM (≈ 2.47 µg/mL)

**Q.** What does the source list for `COc1ccc(-c2cncc(CO[C@@H]3COc4nc([N+](=O)[O-])cn4C3)c2)cc1F`?
**A.** solubility (physchem): 24 µg/mL (≈ 59.9 µM); MIC [1]: 0.91 µM (≈ 0.364 µg/mL); MIC [2]: 9 µM (≈ 3.6 µg/mL)

**Q.** For `COc1ccc(-c2cncc(CO[C@@H]3COc4nc([N+](=O)[O-])cn4C3)c2)cn1`, which solubility (physchem) is on record?
**A.** 31 µg/mL (≈ 80.9 µM)

**Q.** What about the MIC [1] of the same molecule?
**A.** 2.8 µM (≈ 1.07 µg/mL)

**Q.** What about the MIC [2] of the same molecule?
**A.** 22 µM (≈ 8.43 µg/mL)

**Q.** With `O=[N+]([O-])c1cn2c(n1)OC[C@@H](OCc1cc(-c3ccc(C(F)(F)F)cc3)ccn1)C2` as the molecule, how does the solubility (physchem) read?
**A.** 43 µg/mL (≈ 102 µM)

**Q.** What about the MIC [1] of the same molecule?
**A.** 0.88 µM (≈ 0.37 µg/mL)

**Q.** What about the MIC [2] of the same molecule?
**A.** 24 µM (≈ 10.1 µg/mL)

**Q.** Which results are given for `N#Cc1ccc(-c2ccnc(CO[C@@H]3COc4nc([N+](=O)[O-])cn4C3)c2)cc1`?
**A.** solubility (physchem): 19 µg/mL (≈ 50.3 µM); MIC [1]: 2.1 µM (≈ 0.792 µg/mL); MIC [2]: > 32 µM

**Q.** For `O=[N+]([O-])c1cn2c(n1)OC[C@@H](OCc1cc(-c3ccc(F)cc3)ccn1)C2`, which solubility (physchem) is on record?
**A.** 16 µg/mL (≈ 43.2 µM)

**Q.** What about the MIC [1] of the same molecule?
**A.** 0.46 µM (≈ 0.17 µg/mL)

**Q.** What about the MIC [2] of the same molecule?
**A.** 28 µM (≈ 10.4 µg/mL)

**Q.** Which MIC [1] does the source give for `O=[N+]([O-])c1cn2c(n1)OC[C@@H](OCc1cc(-c3ccc(OC(F)(F)F)cc3)ccn1)C2` here?
**A.** 0.76 µM (≈ 0.332 µg/mL)

**Q.** And the MIC [2]?
**A.** 18 µM (≈ 7.85 µg/mL)

**Q.** With `O=[N+]([O-])c1cn2c(n1)OC[C@@H](OCc1cc(-c3ccc(OC(F)F)cc3)ccn1)C2` as the molecule, how does the solubility (physchem) read?
**A.** 86 µg/mL (≈ 206 µM)

**Q.** What about the MIC [1] of the same molecule?
**A.** 0.67 µM (≈ 0.28 µg/mL)

**Q.** And the MIC [2]?
**A.** 26 µM (≈ 10.9 µg/mL)

**Q.** With `COc1ccc(-c2ccnc(CO[C@@H]3COc4nc([N+](=O)[O-])cn4C3)c2)cc1F` as the molecule, how does the solubility (physchem) read?
**A.** 25 µg/mL (≈ 62.4 µM)

**Q.** And the MIC [1]?
**A.** 2.3 µM (≈ 0.921 µg/mL)

**Q.** And the MIC [2]?
**A.** 16 µM (≈ 6.41 µg/mL)

**Q.** Which solubility (physchem) does the source give for `COc1ccc(-c2ccnc(CO[C@@H]3COc4nc([N+](=O)[O-])cn4C3)c2)cn1` here?
**A.** 96 µg/mL (≈ 250 µM)

**Q.** And the MIC [1]?
**A.** 3.8 µM (≈ 1.46 µg/mL)

**Q.** What about the MIC [2] of the same molecule?
**A.** 31 µM (≈ 11.9 µg/mL)

**Q.** Which results are given for `O=[N+]([O-])c1cn2c(n1)OC[C@@H](OCc1ccc(-c3ccc(C(F)(F)F)cc3)cn1)C2`?
**A.** solubility (physchem): 2.3 µg/mL (≈ 5.47 µM); MIC [1]: 0.04 µM (≈ 0.0168 µg/mL); MIC [2]: 3.4 µM (≈ 1.43 µg/mL)

**Q.** Which results are given for `N#Cc1ccc(-c2ccc(CO[C@@H]3COc4nc([N+](=O)[O-])cn4C3)nc2)cc1`?
**A.** solubility (physchem): 45 µg/mL (≈ 119 µM); MIC [1]: 0.18 µM (≈ 0.0679 µg/mL); MIC [2]: 7.5 µM (≈ 2.83 µg/mL)

**Q.** For `O=[N+]([O-])c1cn2c(n1)OC[C@@H](OCc1ccc(-c3ccc(F)cc3)cn1)C2`, which MIC [1] is on record?
**A.** 0.13 µM (≈ 0.0481 µg/mL)

**Q.** What about the MIC [2] of the same molecule?
**A.** 3.2 µM (≈ 1.19 µg/mL)

**Q.** With `O=[N+]([O-])c1cn2c(n1)OC[C@@H](OCc1ccc(-c3ccc(OC(F)F)cc3)cn1)C2` as the molecule, how does the MIC [1] read?
**A.** 0.02 µM (≈ 0.00837 µg/mL)

**Q.** And the MIC [2]?
**A.** 4 µM (≈ 1.67 µg/mL)

**Q.** With `COc1ccc(-c2ccc(CO[C@@H]3COc4nc([N+](=O)[O-])cn4C3)nc2)cc1F` as the molecule, how does the solubility (physchem) read?
**A.** 10 µg/mL (≈ 25 µM)

**Q.** What about the MIC [1] of the same molecule?
**A.** 0.17 µM (≈ 0.0681 µg/mL)

**Q.** And the MIC [2]?
**A.** 3.4 µM (≈ 1.36 µg/mL)

**Q.** For `O=[N+]([O-])c1cn2c(n1)OC[C@@H](OCc1ccc(-c3ccc(OC(F)(F)F)cc3Cl)cn1)C2`, which MIC [1] is on record?
**A.** 0.14 µM (≈ 0.0659 µg/mL)

**Q.** And the MIC [2]?
**A.** 2.6 µM (≈ 1.22 µg/mL)

**Q.** For `O=[N+]([O-])c1cn2c(n1)OC[C@@H](OCc1ccc(-c3ccc(OC(F)(F)F)c(Cl)c3)cn1)C2`, which solubility (physchem) is on record?
**A.** 0.85 µg/mL (≈ 1.81 µM)

**Q.** And the MIC [1]?
**A.** 0.04 µM (≈ 0.0188 µg/mL)

**Q.** And the MIC [2]?
**A.** 2.4 µM (≈ 1.13 µg/mL)

**Q.** With `O=[N+]([O-])c1cn2c(n1)OC[C@@H](OCc1ccc(-c3ccc(OC(F)(F)F)cc3F)cn1)C2` as the molecule, how does the MIC [1] read?
**A.** 0.06 µM (≈ 0.0273 µg/mL)

**Q.** And the MIC [2]?
**A.** 1.7 µM (≈ 0.772 µg/mL)

**Q.** For `O=[N+]([O-])c1cn2c(n1)OC[C@@H](OCc1ccc(-c3ccc(OC(F)(F)F)cc3Cl)nc1)C2`, which MIC [1] is on record?
**A.** 0.03 µM (≈ 0.0141 µg/mL)

**Q.** And the MIC [2]?
**A.** 1.6 µM (≈ 0.753 µg/mL)

**Q.** Which results are given for `O=[N+]([O-])c1cn2c(n1)OC[C@@H](OCc1cnc(-c3ccc(C(F)(F)F)cc3)nc1)C2`?
**A.** MIC [1]: 0.025 µM (≈ 0.0105 µg/mL); MIC [2]: 9.4 µM (≈ 3.96 µg/mL)

**Q.** With `O=[N+]([O-])c1cn2c(n1)OC[C@@H](OCc1cnc(-c3ccc(F)cc3)nc1)C2` as the molecule, how does the MIC [1] read?
**A.** 0.11 µM (≈ 0.0408 µg/mL)

**Q.** What about the MIC [2] of the same molecule?
**A.** 5.4 µM (≈ 2.01 µg/mL)

**Q.** What does the source list for `O=[N+]([O-])c1cn2c(n1)OC[C@@H](OCc1cnc(-c3ccc(C(F)(F)F)nc3)nc1)C2`?
**A.** MIC [1]: 0.16 µM (≈ 0.0676 µg/mL); MIC [2]: 12 µM (≈ 5.07 µg/mL)

**Q.** With `O=[N+]([O-])c1cn2c(n1)OC[C@@H](OCc1ccccc1-c1cccnc1)C2` as the molecule, how does the solubility (physchem) read?
**A.** 116 µg/mL (≈ 329 µM)

**Q.** What about the MIC [1] of the same molecule?
**A.** > 8 µM

**Q.** What about the MIC [2] of the same molecule?
**A.** > 32 µM

**Q.** What does the source list for `O=[N+]([O-])c1cn2c(n1)OC[C@@H](OCc1ccccc1-c1ccc(F)nc1)C2`?
**A.** solubility (physchem): 35 µg/mL (≈ 94.5 µM); MIC [1]: > 8 µM; MIC [2]: 16 µM (≈ 5.93 µg/mL)
